Source: the NIST ThermoML archive (doi:10.1016/j.fluid.2016.02.009)
± gives the expanded uncertainty stated by the source.

Details: Liquid, Vibrating tube method

## CCOC(C)(C)C [2-ethoxy-2-methylpropane]
283.15 K, 100 kPa
  mass density: 751.23 ± 0.3 kg/m3
283.15 K, 5000 kPa
  mass density: 756.42 ± 0.33 kg/m3
283.15 K, 10000 kPa
  mass density: 761.33 ± 0.36 kg/m3
283.15 K, 15000 kPa
  mass density: 765.98 ± 0.4 kg/m3
283.15 K, 20000 kPa
  mass density: 770.36 ± 0.43 kg/m3
283.15 K, 25000 kPa
  mass density: 774.54 ± 0.46 kg/m3
283.15 K, 30000 kPa
  mass density: 778.52 ± 0.49 kg/m3
283.15 K, 35000 kPa
  mass density: 782.33 ± 0.53 kg/m3
283.15 K, 40000 kPa
  mass density: 785.98 ± 0.57 kg/m3
283.15 K, 45000 kPa
  mass density: 789.49 ± 0.6 kg/m3
283.15 K, 50000 kPa
  mass density: 792.89 ± 0.64 kg/m3
283.15 K, 55000 kPa
  mass density: 796.17 ± 0.67 kg/m3
283.15 K, 60000 kPa
  mass density: 799.33 ± 0.7 kg/m3
283.15 K, 65000 kPa
  mass density: 802.42 ± 0.73 kg/m3
288.15 K, 100 kPa
  mass density: 746.2 ± 0.3 kg/m3
288.15 K, 5000 kPa
  mass density: 751.53 ± 0.33 kg/m3
288.15 K, 10000 kPa
  mass density: 756.63 ± 0.36 kg/m3
288.15 K, 15000 kPa
  mass density: 761.42 ± 0.4 kg/m3
288.15 K, 20000 kPa
  mass density: 765.93 ± 0.43 kg/m3
288.15 K, 25000 kPa
  mass density: 770.23 ± 0.47 kg/m3
288.15 K, 30000 kPa
  mass density: 774.31 ± 0.5 kg/m3
288.15 K, 35000 kPa
  mass density: 778.21 ± 0.54 kg/m3
288.15 K, 40000 kPa
  mass density: 781.97 ± 0.57 kg/m3
288.15 K, 45000 kPa
  mass density: 785.55 ± 0.61 kg/m3
288.15 K, 50000 kPa
  mass density: 789.02 ± 0.64 kg/m3
288.15 K, 55000 kPa
  mass density: 792.37 ± 0.68 kg/m3
288.15 K, 60000 kPa
  mass density: 795.56 ± 0.71 kg/m3
288.15 K, 65000 kPa
  mass density: 798.71 ± 0.74 kg/m3
293.15 K, 100 kPa
  mass density: 741.05 ± 0.3 kg/m3
293.15 K, 5000 kPa
  mass density: 746.6 ± 0.33 kg/m3
293.15 K, 10000 kPa
  mass density: 751.89 ± 0.37 kg/m3
293.15 K, 15000 kPa
  mass density: 756.83 ± 0.4 kg/m3
293.15 K, 20000 kPa
  mass density: 761.5 ± 0.44 kg/m3
293.15 K, 25000 kPa
  mass density: 765.92 ± 0.47 kg/m3
293.15 K, 30000 kPa
  mass density: 770.13 ± 0.5 kg/m3
293.15 K, 35000 kPa
  mass density: 774.13 ± 0.54 kg/m3
293.15 K, 40000 kPa
  mass density: 777.97 ± 0.58 kg/m3
293.15 K, 45000 kPa
  mass density: 781.65 ± 0.62 kg/m3
293.15 K, 50000 kPa
  mass density: 785.19 ± 0.65 kg/m3
293.15 K, 55000 kPa
  mass density: 788.63 ± 0.69 kg/m3
293.15 K, 60000 kPa
  mass density: 791.91 ± 0.72 kg/m3
293.15 K, 65000 kPa
  mass density: 795.1 ± 0.75 kg/m3
298.15 K, 100 kPa
  mass density: 735.9 ± 0.3 kg/m3
298.15 K, 5000 kPa
  mass density: 741.67 ± 0.33 kg/m3
298.15 K, 10000 kPa
  mass density: 747.14 ± 0.37 kg/m3
298.15 K, 15000 kPa
  mass density: 752.27 ± 0.4 kg/m3
298.15 K, 20000 kPa
  mass density: 757.08 ± 0.44 kg/m3
298.15 K, 25000 kPa
  mass density: 761.61 ± 0.47 kg/m3
298.15 K, 30000 kPa
  mass density: 765.96 ± 0.51 kg/m3
298.15 K, 35000 kPa
  mass density: 770.04 ± 0.55 kg/m3
298.15 K, 40000 kPa
  mass density: 773.96 ± 0.59 kg/m3
298.15 K, 45000 kPa
  mass density: 777.75 ± 0.62 kg/m3
298.15 K, 50000 kPa
  mass density: 781.37 ± 0.66 kg/m3
298.15 K, 55000 kPa
  mass density: 784.85 ± 0.69 kg/m3
298.15 K, 60000 kPa
  mass density: 788.21 ± 0.73 kg/m3
298.15 K, 65000 kPa
  mass density: 791.48 ± 0.76 kg/m3
303.15 K, 100 kPa
  mass density: 730.67 ± 0.3 kg/m3
303.15 K, 5000 kPa
  mass density: 736.68 ± 0.33 kg/m3
303.15 K, 10000 kPa
  mass density: 742.38 ± 0.37 kg/m3
303.15 K, 15000 kPa
  mass density: 747.69 ± 0.41 kg/m3
303.15 K, 20000 kPa
  mass density: 752.63 ± 0.44 kg/m3
303.15 K, 25000 kPa
  mass density: 757.33 ± 0.48 kg/m3
303.15 K, 30000 kPa
  mass density: 761.74 ± 0.52 kg/m3
303.15 K, 35000 kPa
  mass density: 765.95 ± 0.56 kg/m3
303.15 K, 40000 kPa
  mass density: 769.98 ± 0.59 kg/m3
303.15 K, 45000 kPa
  mass density: 773.86 ± 0.63 kg/m3
303.15 K, 50000 kPa
  mass density: 777.57 ± 0.67 kg/m3
303.15 K, 55000 kPa
  mass density: 781.12 ± 0.7 kg/m3
303.15 K, 60000 kPa
  mass density: 784.56 ± 0.74 kg/m3
303.15 K, 65000 kPa
  mass density: 787.89 ± 0.77 kg/m3
308.15 K, 100 kPa
  mass density: 725.44 ± 0.3 kg/m3
308.15 K, 5000 kPa
  mass density: 731.69 ± 0.33 kg/m3
308.15 K, 10000 kPa
  mass density: 737.6 ± 0.37 kg/m3
308.15 K, 15000 kPa
  mass density: 743.07 ± 0.41 kg/m3
308.15 K, 20000 kPa
  mass density: 748.18 ± 0.44 kg/m3
308.15 K, 25000 kPa
  mass density: 753.01 ± 0.48 kg/m3
308.15 K, 30000 kPa
  mass density: 757.57 ± 0.52 kg/m3
308.15 K, 35000 kPa
  mass density: 761.9 ± 0.56 kg/m3
308.15 K, 40000 kPa
  mass density: 766.03 ± 0.6 kg/m3
308.15 K, 45000 kPa
  mass density: 769.97 ± 0.64 kg/m3
308.15 K, 50000 kPa
  mass density: 773.76 ± 0.68 kg/m3
308.15 K, 55000 kPa
  mass density: 777.4 ± 0.71 kg/m3
308.15 K, 60000 kPa
  mass density: 780.9 ± 0.75 kg/m3
308.15 K, 65000 kPa
  mass density: 784.29 ± 0.78 kg/m3
313.15 K, 100 kPa
  mass density: 720.14 ± 0.3 kg/m3
313.15 K, 5000 kPa
  mass density: 726.68 ± 0.34 kg/m3
313.15 K, 10000 kPa
  mass density: 732.78 ± 0.37 kg/m3
313.15 K, 15000 kPa
  mass density: 738.45 ± 0.41 kg/m3
313.15 K, 20000 kPa
  mass density: 743.71 ± 0.45 kg/m3
313.15 K, 25000 kPa
  mass density: 748.69 ± 0.48 kg/m3
313.15 K, 30000 kPa
  mass density: 753.36 ± 0.53 kg/m3
313.15 K, 35000 kPa
  mass density: 757.81 ± 0.57 kg/m3
313.15 K, 40000 kPa
  mass density: 762.03 ± 0.61 kg/m3
313.15 K, 45000 kPa
  mass density: 766.08 ± 0.65 kg/m3
313.15 K, 50000 kPa
  mass density: 769.94 ± 0.68 kg/m3
313.15 K, 55000 kPa
  mass density: 773.66 ± 0.72 kg/m3
313.15 K, 60000 kPa
  mass density: 777.23 ± 0.75 kg/m3
313.15 K, 65000 kPa
  mass density: 780.69 ± 0.79 kg/m3
318.15 K, 100 kPa
  mass density: 714.82 ± 0.3 kg/m3
318.15 K, 5000 kPa
  mass density: 721.59 ± 0.34 kg/m3
318.15 K, 10000 kPa
  mass density: 727.94 ± 0.37 kg/m3
318.15 K, 15000 kPa
  mass density: 733.82 ± 0.41 kg/m3
318.15 K, 20000 kPa
  mass density: 739.27 ± 0.45 kg/m3
318.15 K, 25000 kPa
  mass density: 744.39 ± 0.49 kg/m3
318.15 K, 30000 kPa
  mass density: 749.2 ± 0.53 kg/m3
318.15 K, 35000 kPa
  mass density: 753.76 ± 0.57 kg/m3
318.15 K, 40000 kPa
  mass density: 758.08 ± 0.61 kg/m3
318.15 K, 45000 kPa
  mass density: 762.23 ± 0.65 kg/m3
318.15 K, 50000 kPa
  mass density: 766.19 ± 0.69 kg/m3
318.15 K, 55000 kPa
  mass density: 769.98 ± 0.73 kg/m3
318.15 K, 60000 kPa
  mass density: 773.61 ± 0.76 kg/m3
318.15 K, 65000 kPa
  mass density: 777.13 ± 0.8 kg/m3
323.15 K, 100 kPa
  mass density: 709.43 ± 0.3 kg/m3
323.15 K, 5000 kPa
  mass density: 716.51 ± 0.34 kg/m3
323.15 K, 10000 kPa
  mass density: 723.13 ± 0.38 kg/m3
323.15 K, 15000 kPa
  mass density: 729.2 ± 0.42 kg/m3
323.15 K, 20000 kPa
  mass density: 734.81 ± 0.45 kg/m3
323.15 K, 25000 kPa
  mass density: 740.06 ± 0.49 kg/m3
323.15 K, 30000 kPa
  mass density: 745.02 ± 0.54 kg/m3
323.15 K, 35000 kPa
  mass density: 749.69 ± 0.58 kg/m3
323.15 K, 40000 kPa
  mass density: 754.13 ± 0.62 kg/m3
323.15 K, 45000 kPa
  mass density: 758.36 ± 0.66 kg/m3
323.15 K, 50000 kPa
  mass density: 762.39 ± 0.7 kg/m3
323.15 K, 55000 kPa
  mass density: 766.26 ± 0.74 kg/m3
323.15 K, 60000 kPa
  mass density: 770 ± 0.77 kg/m3
323.15 K, 65000 kPa
  mass density: 773.58 ± 0.81 kg/m3
328.15 K, 100 kPa
  mass density: 703.95 ± 0.3 kg/m3
328.15 K, 5000 kPa
  mass density: 711.38 ± 0.34 kg/m3
328.15 K, 10000 kPa
  mass density: 718.21 ± 0.38 kg/m3
328.15 K, 15000 kPa
  mass density: 724.52 ± 0.42 kg/m3
328.15 K, 20000 kPa
  mass density: 730.3 ± 0.46 kg/m3
328.15 K, 25000 kPa
  mass density: 735.75 ± 0.5 kg/m3
328.15 K, 30000 kPa
  mass density: 740.83 ± 0.54 kg/m3
328.15 K, 35000 kPa
  mass density: 745.64 ± 0.58 kg/m3
328.15 K, 40000 kPa
  mass density: 750.18 ± 0.63 kg/m3
328.15 K, 45000 kPa
  mass density: 754.48 ± 0.67 kg/m3
328.15 K, 50000 kPa
  mass density: 758.63 ± 0.71 kg/m3
328.15 K, 55000 kPa
  mass density: 762.55 ± 0.74 kg/m3
328.15 K, 60000 kPa
  mass density: 766.37 ± 0.78 kg/m3
328.15 K, 65000 kPa
  mass density: 770.52 ± 0.82 kg/m3
333.15 K, 100 kPa
  mass density: 698.45 ± 0.3 kg/m3
333.15 K, 5000 kPa
  mass density: 706.19 ± 0.34 kg/m3
333.15 K, 10000 kPa
  mass density: 713.35 ± 0.38 kg/m3
333.15 K, 15000 kPa
  mass density: 719.84 ± 0.42 kg/m3
333.15 K, 20000 kPa
  mass density: 725.83 ± 0.46 kg/m3
333.15 K, 25000 kPa
  mass density: 731.42 ± 0.5 kg/m3
333.15 K, 30000 kPa
  mass density: 736.64 ± 0.55 kg/m3
333.15 K, 35000 kPa
  mass density: 741.54 ± 0.59 kg/m3
333.15 K, 40000 kPa
  mass density: 746.21 ± 0.63 kg/m3
333.15 K, 45000 kPa
  mass density: 750.65 ± 0.67 kg/m3
333.15 K, 50000 kPa
  mass density: 754.86 ± 0.71 kg/m3
333.15 K, 55000 kPa
  mass density: 758.88 ± 0.75 kg/m3
333.15 K, 60000 kPa
  mass density: 762.77 ± 0.79 kg/m3
333.15 K, 65000 kPa
  mass density: 766.51 ± 0.83 kg/m3
